The values below come from paper PMC10808720 (Frontiers in Pharmacology, 2024).

The structures appear in SMILES notation. Entries after “also recorded” stand apart in the source; their conditions may differ. Like-named read-outs stand apart in the source and are kept apart here.

Usually IC50 stands for the concentration needed to halve the response being measured. A word on the CC50: it is the concentration giving 50% cytotoxicity. High values mean better tolerance by the cells, low ones harm at low concentration. A word on the inhibition: it is the relative decrease from the control value, in per cent.

Series [1] deals with p53/MDM2 complex. In kind it is cell-based, Human. The settings on record: HAdV5-infected A549 cells, 24 h; for concentration of p53/MDM2 complexes, high vs low cell density: 10-fold IC50. The method, then: A549 cells were seeded at a density of 1.5 × 10^5 cells per well in a 24-well plate at a high density and 3.75 × 10^4 cells per well at a low density. […] The culture medium was then aspirated and washed with 1X with cold PBS. Later, 200 μL RIPA Lysis Buffer (1% v/v NP-40, 20 mM Tris-HCL pH 7.4, 5 mM Sodium Pyrophosphate, 5 mM EDTA) with freshly added proteinase inhibitor cocktail (Thermo Fisher Scientific) was added to each well and swirled to distribute it evenly. Cells were then scraped and collected to incubate them for 30 min on ice and finally centrifuged at 13,000 × g for 5 min at 4°C. […] This assay was performed in triplicate.

Series [2] relates to wild-type HAdV5. Nature of the series: HAdV yield reduction (burst) assay, TCID50 end-point dilution. Type of series: cell-based, human adenovirus (HAdV5). Particulars: 10-fold IC50 concentration, TCID50/ml compound vs. DMSO, A549 cells, 48 h, MOI 100 vp/cell. The method, then: A549 cells (1.5 × 10^5 cells/well in a 24-well plate) were incubated 24 h in 500 μL of complete DMEM and they were infected with wild-type HAdV5 (MOI 100 vp/cell) when more than 90% of confluency was observed. Infected cells were incubated for 48 h at 37°C in 500 μL of either complete DMEM containing 10-fold IC50 concentration of compounds obtained in the plaque assay or the same volume of DMSO (positive control). After 48 h, the cells were harvested and subjected to three rounds of freeze/thaw. Serial dilutions of the clarified lysates were titrated against A549 cells (3 × 10^4 cells/well in a 96-well plate) and TCID50 values were calculated using an end-point dilution method ([Reed and Muench, 1938]).

Series [3] concerns wild-type HAdV5. Nature of the series: HAdV DNA quantification by qPCR. Type of series: cell-based, human adenovirus (HAdV5). The settings on record: 10-fold IC50; A549; 24 h; vs DMSO control. The method, then:
For DNA quantification, A549 cells (1.5 × 10^5 cells/well in a 24-well plate) were incubated for 24 h in 500 μL of complete DMEM and were infected with wild-type HAdV5 (MOI 100 vp/cell) after observing more than 90% of confluency. Infected cells were incubated for 24 h at 37°C in 500 μL of either complete DMEM containing 10-fold IC50 concentration of the compounds obtained in the plaque assay or the same volume of DMSO (positive control). All samples were prepared in duplicate. After 24 h of incubation at 37°C, DNA was purified from the cell lysate with the E.Z.N.A.® Tissue DNA Kit (Omega Bio-tek, Norcross, GA) following the manufacturer’s instructions. PCR conditions, primers, and probes were as described by [Henke-Gendo et al. (2012)]. Human glyceraldehyde-3-phosphate dehydrogenase (GAPDH) gene was used as an internal control. GAPDH oligonucleotide sequences and conditions were as previously described by [Rivera et al. (2004)].
For quantification, gene fragments from hexons, and GAPDH were cloned into the pGEM-T Easy vector (Promega) and known concentrations of the template were used to generate a standard curve in parallel for each experiment, as previously reported ([Sanchez-Cespedes et al., 2016]). All assays were performed in thermal cycler LightCycler® 96 System (Roche).
(In general: Quantitative PCR measures a nucleic acid by following its amplification.)

The test system of series [4] is HAdV5-GFP. Nature of the series: microbe, parasite or virus in culture. The settings on record: for Selectivity index: CC50 (A549) vs IC50 plaque assay (HAdV5). In kind it is cell-based, human adenovirus (HAdV5). The method, then:
Compounds were tested using low MOI infections (0.06 vp/cell), initially at concentrations of 10 μM and subsequently in a dose-response assay ranging from 10 μM to 2.44 nM in a plaque assay. Briefly, 293β5 cells were seeded in 6-well plates at a density of 1 × 10^6 cells per well in duplicate for each condition. When the cells reached 80%–90% confluency, they were infected with HAdV5-GFP and rocked for 2 h at 37°C. After the incubation, the inoculum was removed and the cells were washed once with PBS. Cells were then carefully overlaid with equal parts of 4 mL/well 1.6% ([…]) Difco Agar Noble (Becton, Dickinson & Co., Sparks, MD, USA) and 2× Eagle’s Minimum Essential Medium (EMEM; BioWhittaker) supplemented with 2×penicillin/streptomycin, 2× L-glutamine, and 10% FBS. The mixture also contained the compounds in the concentration ranges described above. Following incubation for 7 days at 37°C, plates were scanned with a Typhoon FLA 9000 imager (GE Healthcare Life Sciences) and the formed plaques were quantified with ImageJ ([Schneider et al., 2012]). Plaque counting was performed to calculate the 50% inhibitory concentration (IC50) of each compound using the statistical software GraphPad Prism 6.

A short description of series [5]: Cytotoxicity assay (AlamarBlue). The settings on record: human, A549 cells; for CC50: 48 h. In kind it is cell-based, Human. The method, then:
The cytotoxicity of the molecules was analyzed using the commercial kit AlamarBlue® (Invitrogen, Ref. DAL1025) according to the manufacturer’s instructions. Briefly, A549 cells were seeded at a density of 5 × 10^3 cells per well in 96-well plates, and decreasing serial dilutions of each molecule were diluted in 100 μL of DMEM starting at 200 μM. The cells were then incubated at 37°C for 48 h following the manufacturer’s protocol. The cytotoxic concentration 50% (CC50) value was obtained using the statistical software GraphPad Prism 6. The assay was performed in duplicate.
A general note: Alamar Blue is a resazurin reagent that responds to reducing activity.

Series [6] deals with HCMV. Nature of the series: Impact on HCMV replication (qPCR of HCMV DNA in HFF). In kind it is cell-based, human cytomegalovirus. Particulars: 2-fold IC50 (HAdV plaque assay), 72 h. The method, then:
To test the anti-HCMV activity of these rotenolone-related compounds, human foreskin fibroblasts (HFF; ATCC, Manassas, VA) were seeded in a 24-well plate (8.3 × 10^4 cells/well), infected with HCMV (MOI 0.05 vp/cell), and incubated in complete DMEM in the presence of either 2-fold IC50 concentration of each compound obtained in the plaque assay against HAdV or the same volume of DMSO (positive control) in duplicate. The cells were incubated for 72 h at 37°C and 5% CO2 and HCMV DNA was purified from the cell lysate using E.Z.N.A Tissue DNA Kit (Omega Biotek, Norcross, GA, USA) following the manufacturer’s instructions. The qPCR primers, conditions, and protocols were the same as previously reported ([Mazzotta et al., 2020b]).

In series [7] the test system is HAdV5-RFP. Nature of the series: Anti-HAdV activity after knockdown of RPS14 by siRNA (RFP expression). In kind it is cell-based, human adenovirus (HAdV5). Particulars: RPS14 knockdown 293β5 cells; 10-fold IC50; 48 h. The method, then: An siRNA approach was used to evaluate the antiviral activity of these molecules in the absence of RPS14. According to the supplier’s protocol (Effectene Transfection Reagent, QIAGEN, Valencia, CA), 293β5 cells at 1.5 × 10^4 cells/well were seeded in a clear bottom 96-well microplate a day before transfection. On the day of transfection, 0.1 µg siRNA (MISSION esiRNA RPS14, SigmaAldrich) was diluted in EC buffer up to 30 µL/well and 0.8 µL/well of the enhancer was added and the mix was incubated for 5 min. Effectene transfection reagent was added and the mix was incubated for 10 min to allow transfection complex formation. The cell layers were washed with 1x PBS and transfection complexes were poured over them. After 6 h of incubation, the transfection complexes were removed and the cells were infected with HAdV5-RFP (MOI 2,000 viral particles/cell) in the presence of a 10-fold IC50 concentration of the compounds obtained in the plaque assay or the same volume of DMSO. Standard infection was induced in the presence of the same concentrations of the compounds (performed in triplicate), and a control without siRNA. Cells, viruses, and compounds were incubated for 48 h at 37°C and 5% CO2. Infection, as measured by HAdV5-mediated RFP expression, was analyzed using a Typhoon 9410 imager (GE Healthcare Life Sciences) and quantified using ImageQuantTL (GE Healthcare Life Sciences).

Where [8] appears, read: Human adenovirus sp., 168 h, read-out: IC50 plaque assay.

For the compound `COc1cc2c(cc1OC)[C@@H]1C(=O)c3ccc4c(c3O[C@@H]1CO2)C=CC(C)(C)O4` [Deguelin, (7aS,13aS)-13,13a-Dihydro-9,10-dimethoxy-3,3-dimethyl-3H-bis ([Mennechet et al., 2019])benzopyrano[3,4-b:6′,5′-e]pyran-7-(7aH)-one], the “concentration of p53/MDM2 complexes, high vs low cell density” value in series [1] is “non among emetine, rotenone, deguelin and tephrosin alter the concentrations”. Further, the entries for the “Virus Yield Fold-reduction” value in series [2] and in series [2] (listed as deguelin) were 2.7E+02 ± 19.4 fold and 270 fold, respectively. Further, the “HAdV DNA copy number (de novo synthesis)” value in series [3] is reported as “significant decrease”. Also, the Selectivity index in series [4] is listed as 2,429.3. Moreover, the concentration for half-maximal inhibition (IC50) in series [4] (setting [8]) worked out at 0.04 ± 0.01 µM. Also, in series [5], it took 97.2 ± 0.1 µM to reach half-maximal cytotoxicity (CC50). Moreover, the “inhibition of HCMV replication” value in series [6] stood at 50%.
Consider `CC[C@H]1CN2CCc3cc(OC)c(OC)cc3[C@@H]2C[C@@H]1C[C@H]1NCCc2cc(OC)c(OC)cc21` [emetine, reference compound], for which the “HAdV-mediated RFP expression when no RPS14 was available” value in series [7] is on record as “reduced”. Moreover, in series [1], the “concentration of p53/MDM2 complexes, high vs low cell density” value is “no differences based on the cell density; also recorded: non among emetine, rotenone, deguelin and tephrosin alter the concentrations”; the “concentration of p53/MDM2 complexes” value is “dramatically reduced”. In series [4] (Human adenovirus sp.), 0.085 ± 0.019 µM corresponded to half-maximal inhibition (IC50). The compound also showed a CC50 in series [5] of 6.17 ± 0.04 µM.
For `CC1(C)C=Cc2c(ccc3c2O[C@@H]2COc4cc5c(cc4[C@@H]2C3=O)OCO5)O1` [Millettone], the Selectivity index in series [4] came out at 23.8. The IC50 in series [4] (setting [8]) was 4.6 ± 0.54 µM. Further, in series [4] (Human adenovirus sp., read-out: inhibition of plaque formation), the inhibition at 10 µM is over 98%. It took 109 ± 2.2 µM to reach half-maximal cytotoxicity in series [5] (CC50). Further, in series [6], the “increase of HCMV replication compared with the control treated with DMSO” value was “more than 10 times” and the “inhibition of HCMV replication” value is “did not inhibit”.
Turning to `COc1cc2c(cc1OC)[C@]1(O)C(=O)c3ccc4c(c3O[C@@H]1CO2)C=CC(C)(C)O4` [Tephrosin, hydroxydeguelin], the “concentration of p53/MDM2 complexes, high vs low cell density” value in series [1] was “non among emetine, rotenone, deguelin and tephrosin alter the concentrations”. The “Virus Yield Fold-reduction” value in series [2] is 2.7E+03 ± 987.3 fold. This compound also gave a Selectivity index in series [4] of 538.9. In addition, the half-inhibitory concentration (IC50) in series [4] (setting [8]) was 0.07 ± 0.03 µM. The compound further had a CC50 at 48 h in series [5] of 37.7 ± 0.6 µM. Also, the “inhibition of HCMV replication” value in series [6] was 83.4%.
